The NIST ThermoML archive (doi:10.1016/j.jct.2016.02.015)

Experiment: excess molar enthalpy (molar enthalpy of mixing); xn = mol fraction of the nth substance listed
Conditions: 100 kPa, Liquid, Calvet calorimetry

[Li] [lithium] + [Ga]
Conditions | excess molar enthalpy [kcal/mol]
873 K, x1 = 0.703 | -4.64
873 K, x1 = 0.7734 | -3.87
873 K, x1 = 0.8058 | -3.44
873 K, x1 = 0.8391 | -2.92
873 K, x1 = 0.865 | -2.51
873 K, x1 = 0.894 | -2.03
873 K, x1 = 0.9218 | -1.53
873 K, x1 = 0.9468 | -0.98
873 K, x1 = 0.9801 | -0.335
992 K, x1 = 0.0908 | -1.22
992 K, x1 = 0.1797 | -2.44
992 K, x1 = 0.2283 | -3.06
992 K, x1 = 0.3064 | -3.85
992 K, x1 = 0.3748 | -4.47
1039 K, x1 = 0.4284 | -4.73
1039 K, x1 = 0.5421 | -5.07
1039 K, x1 = 0.652 | -4.78
1039 K, x1 = 0.7322 | -4.06
1039 K, x1 = 0.7709 | -3.54
1039 K, x1 = 0.7991 | -3.06
1039 K, x1 = 0.8282 | -2.68
